Assay results: US20240208992A1, “MACROCYCLES AS CFTR MODULATORS” (Idorsia Pharmaceuticals Ltd, priority 2021, published 2024)

Molecular target: human F508del-CFTR (Homo sapiens, UniProt P13569, DEL508-508)
Assay: F508del-CFTR cell surface expression (corrector activity), DiscoveRx ß-galactosidase complementation chemiluminescence assay in recombinant U2OS cell line;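 note: U2OS cells co-expressing ProLink-tagged F508del-CFTR and a membrane-anchored enzyme acceptor, where more surface CFTR restores β-galactosidase activity measured by chemiluminescence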
Settings: U2OS cells, 16h compound incubation; for EC50: geomean of several measurements; for Emax: in relation to the Emax of the corrector lumacaftor (=100%), arithmetic mean
[1] = EC50, F508del-CFTR cell surface expression

Chain of human F508del-CFTR (P13569 with tags, fused parts or gaps DEL508-508): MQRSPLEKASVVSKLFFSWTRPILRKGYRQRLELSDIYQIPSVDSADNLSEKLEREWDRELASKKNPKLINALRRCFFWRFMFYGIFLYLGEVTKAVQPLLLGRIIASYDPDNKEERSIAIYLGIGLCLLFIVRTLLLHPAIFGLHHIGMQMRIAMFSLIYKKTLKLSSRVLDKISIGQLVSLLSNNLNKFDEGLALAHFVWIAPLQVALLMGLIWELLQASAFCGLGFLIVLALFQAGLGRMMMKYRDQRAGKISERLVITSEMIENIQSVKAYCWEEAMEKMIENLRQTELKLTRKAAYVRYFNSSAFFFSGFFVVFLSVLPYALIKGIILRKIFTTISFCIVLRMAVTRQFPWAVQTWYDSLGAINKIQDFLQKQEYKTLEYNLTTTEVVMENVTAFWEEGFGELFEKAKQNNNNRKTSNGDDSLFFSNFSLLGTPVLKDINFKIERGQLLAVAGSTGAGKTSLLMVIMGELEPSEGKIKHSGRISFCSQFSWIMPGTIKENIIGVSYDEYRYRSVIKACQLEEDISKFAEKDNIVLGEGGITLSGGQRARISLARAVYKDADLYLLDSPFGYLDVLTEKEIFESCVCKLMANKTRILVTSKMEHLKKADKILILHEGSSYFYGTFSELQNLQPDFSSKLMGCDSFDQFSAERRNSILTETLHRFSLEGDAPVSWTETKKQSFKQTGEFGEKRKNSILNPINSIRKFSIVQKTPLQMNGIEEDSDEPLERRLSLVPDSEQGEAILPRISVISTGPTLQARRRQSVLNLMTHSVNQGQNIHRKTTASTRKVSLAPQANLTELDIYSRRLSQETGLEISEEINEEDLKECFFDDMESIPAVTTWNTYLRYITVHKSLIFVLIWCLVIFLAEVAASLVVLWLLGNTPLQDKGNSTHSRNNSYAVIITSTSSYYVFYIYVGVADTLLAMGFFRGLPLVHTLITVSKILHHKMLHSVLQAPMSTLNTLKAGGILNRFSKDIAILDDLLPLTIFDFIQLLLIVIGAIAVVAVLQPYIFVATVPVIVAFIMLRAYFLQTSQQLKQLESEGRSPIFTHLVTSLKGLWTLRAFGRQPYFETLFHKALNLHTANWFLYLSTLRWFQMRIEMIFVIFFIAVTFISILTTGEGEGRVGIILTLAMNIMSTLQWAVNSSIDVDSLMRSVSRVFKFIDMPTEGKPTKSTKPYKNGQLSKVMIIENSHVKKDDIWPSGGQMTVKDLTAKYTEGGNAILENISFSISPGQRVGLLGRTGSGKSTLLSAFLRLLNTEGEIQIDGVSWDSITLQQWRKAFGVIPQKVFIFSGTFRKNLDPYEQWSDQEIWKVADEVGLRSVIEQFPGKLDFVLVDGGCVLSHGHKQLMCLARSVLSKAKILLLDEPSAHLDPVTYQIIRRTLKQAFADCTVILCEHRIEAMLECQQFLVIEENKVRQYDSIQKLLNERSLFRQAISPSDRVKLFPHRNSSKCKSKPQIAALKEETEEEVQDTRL

Row | EC50 [1] | Emax (U2OS) | EC50 (F508del-CFTR cell surface expression) | Emax | SMILES
1 | 191 nM | 276% |  |  | CC(C)C[C@H]1C(=O)N2CCCC[C@@H]2C(=O)N[C@H](Cc2ccccc2)COc2ccc3ncc(F)cc3c2C(=O)N[C@H](C(=O)NCCc2cnn(C3CC3)n2)CC(=O)N1C [Example 805, (9S,13S,19aR,22R)-22-benzyl-N-(2-(2-cyclopropyl-2H-1,2,3-triazol-4-yl)ethyl)-5-fluoro-13-isobutyl-12-methyl-7,11,14,20-tetraoxo-7,8,9,10,11,12,13,14,17,18,19,19a,20,21,22,23-hexadecahydro-16H-pyrido[2′,1′:6,7][1]oxa[4,7,10,14]tetraazacycloheptadecino[16,17-f]quinoline-9-carboxamide]
2 | 233 nM | 394% |  |  | COc1nc(C)cc2c1C(=O)N[C@H](C(=O)NCCn1nnc(C3CC3)n1)CC(=O)N(C)[C@@H](CC(C)C)C(=O)N(C)[C@H](CC(F)(F)F)C(=O)N[C@H](Cc1ccccc1)CO2 [Example 806, (3R,6R,9S,13S)-3-benzyl-N-(2-(5-cyclopropyl-2H-tetrazol-2-yl)ethyl)-9-isobutyl-16-methoxy-7,10,18-trimethyl-5,8,11,15-tetraoxo-6-(2,2,2-trifluoroethyl)-2,3,4,5,6,7,8,9,10,11,12,13,14,15-tetradecahydropyrido[3,4-p][1]oxa[4,7,10,14]tetraazacycloheptadecine-13-carboxamide]
3 | 206 nM | 358% |  |  | Cc1cc(CCNC(=O)[C@@H]2CC(=O)N(C)[C@@H](CC(C)C)C(=O)N(C)[C@H](Cc3nc(-c4ccc(F)cn4)no3)C(=O)N[C@H](Cc3ccccc3)COc3ccc4ncc(F)cc4c3C(=O)N2)on1 [Example 807, (3S,7S,10R,13R)-13-benzyl-20-fluoro-10-((3-(5-fluoropyridin-2-yl)-1,2,4-oxadiazol-5-yl)methyl)-7-isobutyl-6,9-dimethyl-N-(2-(3-methylisoxazol-5-yl)ethyl)-1,5,8,11-tetraoxo-1,2,3,4,5,6,7,8,9,10,11,12,13,14-tetradecahydro-[1]oxa[4,7,10,14]tetraazacycloheptadecino[16,17-f]quinoline-3-carboxamide]
4 | 116 nM | 399% |  |  | CC(C)C[C@H]1C(=O)N(C)[C@H](Cc2nc(-c3ccc(F)cn3)no2)C(=O)N[C@H](Cc2ccccc2)COc2ccc3ncc(F)cc3c2C(=O)N[C@H](C(=O)NCCc2nc(C3CC3)no2)CC(=O)N1C [Example 808, (3S,7S,10R,13R)-13-benzyl-N-(2-(3-cyclopropyl-1,2,4-oxadiazol-5-yl)ethyl)-20-fluoro-10-((3-(5-fluoropyridin-2-yl)-1,2,4-oxadiazol-5-yl)methyl)-7-isobutyl-6,9-dimethyl-1,5,8,11-tetraoxo-1,2,3,4,5,6,7,8,9,10,11,12,13,14-tetradecahydro-[1]oxa[4,7,10,14]tetraazacycloheptadecino[16,17-f]quinoline-3-carboxamide]
5 | 10 nM | 391% |  |  | COc1cc(CCNC(=O)[C@@H]2CC(=O)N(C)[C@@H](CC(C)C)C(=O)N(C)[C@H](Cc3nc(C(F)(F)F)no3)C(=O)N[C@H](Cc3ccccc3)COc3cnc4ccc(F)cc4c3C(=O)N2)on1 [Example 809, (3S,7S,10R,13R)-13-benzyl-20-fluoro-7-isobutyl-N-(2-(3-methoxyisoxazol-5-yl)ethyl)-6,9-dimethyl-1,5,8,11-tetraoxo-10-((3-(trifluoromethyl)-1,2,4-oxadiazol-5-yl)methyl)-1,2,3,4,5,6,7,8,9,10,11,12,13,14-tetradecahydro-[1]oxa[4,7,10,14]tetraazacycloheptadecino[17,16-c]quinoline-3-carboxamide]
6 | 161 nM | 285% |  |  | COc1cc(CCNC(=O)[C@@H]2CC(=O)N(C)[C@@H](CC(C)C)C(=O)N(C)[C@@H](Cc3nc(C(F)(F)F)no3)C(=O)N[C@H](Cc3ccccc3)COc3cnc4ccc(F)cc4c3C(=O)N2)on1 [Example 810, (3S,7S,10S,13R)-13-benzyl-20-fluoro-7-isobutyl-N-(2-(3-methoxyisoxazol-5-yl)ethyl)-6,9-dimethyl-1,5,8,11-tetraoxo-10-((3-(trifluoromethyl)-1,2,4-oxadiazol-5-yl)methyl)-1,2,3,4,5,6,7,8,9,10,11,12,13,14-tetradecahydro-[1]oxa[4,7,10,14]tetraazacycloheptadecino[17,16-c]quinoline-3-carboxamide]
7 |  |  | 631 nM | 242% | CC(C)C[C@H]1C(=O)N(C)[C@@H](Cc2nc(-c3ccc(F)cn3)no2)C(=O)N[C@H](Cc2ccccc2)COc2cnc3ccc(F)cc3c2C(=O)N[C@H](C(=O)NCCc2noc(C3CC3)n2)CC(=O)N1C [Example 814, (3S,7S,10S,13R)-13-benzyl-N-(2-(5-cyclopropyl-1,2,4-oxadiazol-3-yl)ethyl)-20-fluoro-10-((3-(5-fluoropyridin-2-yl)-1,2,4-oxadiazol-5-yl)methyl)-7-isobutyl-6,9-dimethyl-1,5,8,11-tetraoxo-1,2,3,4,5,6,7,8,9,10,11,12,13,14-tetradecahydro-[1]oxa[4,7,10,14]tetraazacycloheptadecino[17,16-c]quinoline-3-carboxamide]
8 | 128 nM | 413% |  |  | COc1cc(CCNC(=O)[C@@H]2CC(=O)N(C)[C@@H](CC(C)C)C(=O)N(C)[C@H](Cc3nc(-c4ccc(F)cn4)no3)C(=O)N[C@H](Cc3ccccc3)COc3cnc4ccc(F)cc4c3C(=O)N2)on1 [Example 815, (3S,7S,10R,13R)-13-benzyl-20-fluoro-10-((3-(5-fluoropyridin-2-yl)-1,2,4-oxadiazol-5-yl)methyl)-7-isobutyl-N-(2-(3-methoxyisoxazol-5-yl)ethyl)-6,9-dimethyl-1,5,8,11-tetraoxo-1,2,3,4,5,6,7,8,9,10,11,12,13,14-tetradecahydro-[1]oxa[4,7,10,14]tetraazacycloheptadecino[17,16-c]quinoline-3-carboxamide]
9 | 741 nM | 286% |  |  | COc1cc(CCNC(=O)[C@@H]2CC(=O)N(C)[C@@H](CC(C)C)C(=O)N(C)[C@@H](Cc3nc(-c4ccc(F)cn4)no3)C(=O)N[C@H](Cc3ccccc3)COc3cnc4ccc(F)cc4c3C(=O)N2)on1 [Example 816, (3S,7S,10S,13R)-13-benzyl-20-fluoro-10-((3-(5-fluoropyridin-2-yl)-1,2,4-oxadiazol-5-yl)methyl)-7-isobutyl-N-(2-(3-methoxyisoxazol-5-yl)ethyl)-6,9-dimethyl-1,5,8,11-tetraoxo-1,2,3,4,5,6,7,8,9,10,11,12,13,14-tetradecahydro-[1]oxa[4,7,10,14]tetraazacycloheptadecino[17,16-c]quinoline-3-carboxamide]
10 | 420 nM | 375% |  |  | CC(C)C[C@H]1C(=O)N(C)C2(CC2)C(=O)N[C@H](Cc2ccccc2)COc2ccc3ncc(F)cc3c2C(=O)N[C@H](C(=O)NCCn2nnc(C3CC3)n2)CC(=O)N1C [Example 817, (3′S,7′S,13′R)-13′-benzyl-N-(2-(5-cyclopropyl-2H-tetrazol-2-yl)ethyl)-20′-fluoro-7′-isobutyl-6′,9′-dimethyl-1′,5′,8′,11′-tetraoxo-2′,3′,4′,5′,6′,7′,8′,9′,11′,12′,13′,14′-dodecahydro-1′H-spiro[cyclopropane-1,10′-[1]oxa[4,7,10,14]tetraazacycloheptadecino[16,17-f]quinoline]-3′-carboxamide]

Row | SMILES | EC50 [1] | Emax (U2OS) | EC50 (F508del-CFTR cell surface expression) | Emax
11 | CC(C)C[C@H]1C(=O)N(C)[C@H](Cc2nc(C(F)(F)F)no2)C(=O)N[C@H](Cc2ccccc2)COc2cnc3ccc(F)cc3c2C(=O)N[C@H](C(=O)NCCc2noc(C3CC3)n2)CC(=O)N1C [Example 811, (3S,7S,10R,13R)-13-benzyl-N-(2-(5-cyclopropyl-1,2,4-oxadiazol-3-yl)ethyl)-20-fluoro-7-isobutyl-6,9-dimethyl-1,5,8,11-tetraoxo-10-((3-(trifluoromethyl)-1,2,4-oxadiazol-5-yl)methyl)-1,2,3,4,5,6,7,8,9,10,11,12,13,14-tetradecahydro-[1]oxa[4,7,10,14]tetraazacycloheptadecino[17,16-c]quinoline-3-carboxamide] | 19 nM | 333% |  | 
12 | CC(C)C[C@H]1C(=O)N(C)[C@@H](Cc2nc(C(F)(F)F)no2)C(=O)N[C@H](Cc2ccccc2)COc2cnc3ccc(F)cc3c2C(=O)N[C@H](C(=O)NCCc2noc(C3CC3)n2)CC(=O)N1C [Example 812, (3S,7S,10S,13R)-13-benzyl-N-(2-(5-cyclopropyl-1,2,4-oxadiazol-3-yl)ethyl)-20-fluoro-7-isobutyl-6,9-dimethyl-1,5,8,11-tetraoxo-10-((3-(trifluoromethyl)-1,2,4-oxadiazol-5-yl)methyl)-1,2,3,4,5,6,7,8,9,10,11,12,13,14-tetradecahydro-[1]oxa[4,7,10,14]tetraazacycloheptadecino[17,16-c]quinoline-3-carboxamide] | 127 nM | 280% |  | 
13 | CC(C)C[C@H]1C(=O)N(C)[C@H](Cc2nc(-c3ccc(F)cn3)no2)C(=O)N[C@H](Cc2ccccc2)COc2cnc3ccc(F)cc3c2C(=O)N[C@H](C(=O)NCCc2noc(C3CC3)n2)CC(=O)N1C [Example 813, (3S,7S,10R,13R)-13-benzyl-N-(2-(5-cyclopropyl-1,2,4-oxadiazol-3-yl)ethyl)-20-fluoro-10-((3-(5-fluoropyridin-2-yl)-1,2,4-oxadiazol-5-yl)methyl)-7-isobutyl-6,9-dimethyl-1,5,8,11-tetraoxo-1,2,3,4,5,6,7,8,9,10,11,12,13,14-tetradecahydro-[1]oxa[4,7,10,14]tetraazacycloheptadecino[17,16-c]quinoline-3-carboxamide] | 110 nM | 346% |  | 
